Results from ChEMBL document CHEMBL2177022, “Novel acidic 11β-hydroxysteroid dehydrogenase type 1 (11β-HSD1) inhibitor with reduced acyl glucuronide liability: the discovery of 4-[4-(2-adamantylcarbamoyl)-5-tert-butyl-pyrazol-1-yl]benzoic acid (AZD8329)” (J Med Chem, 2012).

How the values were obtained:
[1] = Percentage unbound in rat plasma at 37 degC by equilibrium dialysis method; format: ADME, cell-free
[2] = in vivo; settings: rat
[3] = Intrinsic clearance in rat hepatocytes assessed per 10^6 cells
[4] = Oral bioavailability in rat; format: ADME, organism-based; settings: in vivo
[5] = Lipophilicity, log D at pH 7.4 by shake flask method; settings: buffer
[6] = Drug metabolism in bile duct cannulated rat urine assessed as oxidative metabolism level during 0 to 6 hrs post dose by metabolism-ID study; format: ADME, tissue-based; settings: in vivo
[7] = Stability in bile duct cannulated rat urine assessed as parent compound remaining measured during 0 to 6 hrs post dose; format: ADME, tissue-based; settings: in vivo
[8] = Inhibition of N-terminal 6-His tagged full length cynomolgus monkey 11betaHSD1 incubated for 25 mins by HTRF assay; set-up: species or system Macaca fascicularis
[9] = Stability in bile duct cannulated rat bile assessed as parent compound remaining measured during 0 to 6 hrs post dose; format: ADME; settings: in vivo
[10] = Inhibition of N-terminal 6-His tagged full length dog 11betaHSD1 incubated for 25 mins by HTRF assay; set-up: species or system Canis lupus familiaris
[11] = Drug metabolism in bile duct cannulated rat bile assessed as ratio of glucuronidation to oxidative metabolism level during 0 to 6 hrs post dose by metabolism-ID study; format: ADME; settings: in vivo
[12] = Drug metabolism in bile duct cannulated rat urine assessed as ratio of glucuronidation to oxidative metabolism level during 0 to 6 hrs post dose by metabolism-ID study; format: ADME, tissue-based; settings: in vivo
[13] = tested on: Hepatocyte; assay: Drug metabolism in human hepatocytes assessed as ratio of glucuronidation to oxidative metabolism level by metabolism-ID study; format: ADME, cell-based
[14] = Drug metabolism in dog hepatocytes assessed as ratio of glucuronidation to oxidative metabolism level by metabolism-ID study; format: ADME, cell-based, Canis lupus familiaris, Hepatocyte
[15] = tested on: Hepatocyte; assay: Drug metabolism in rat hepatocytes assessed as ratio of glucuronidation to oxidative metabolism level by metabolism-ID study; format: ADME, cell-based
[16] = Drug metabolism in dog hepatocytes assessed as oxidative metabolism level by metabolism-ID study; format: ADME, cell-based, Canis lupus familiaris, Hepatocyte
[17] = Drug metabolism in bile duct cannulated rat bile assessed as oxidative metabolism level during 0 to 6 hrs post dose by metabolism-ID study; format: ADME; settings: in vivo

SMILES	fraction unbound [1]	clearance [2] [mL/min/kg]	hepatocyte CLint [3] [µL/min/1e6 cells]	bioavailability [4] [%]	logD [5]	also measured
O=C(O)c1ccc(-n2ncc(C(=O)NC3C4CC5CC(C4)CC3C5)c2C2CCC2)cc1 (centres undefined)	0.012	1.3	< 3	> 100		
O=C(O)c1ccc(-n2ncc(C(=O)NC3C4CC5CC(C4)CC3C5)c2C(F)(F)F)cc1 (centres undefined)	0.045			> 100		
CCCSc1c(C(=O)N(C)C2CCCCC2)cnn1-c1ccc(C(=O)O)cc1	0.025	8.1	26	26	0.6	
CCCSc1c(C(=O)NC2CCCCC2)cnn1[C@H]1CC[C@H](C(=O)O)CC1	0.093	2.5	7.5	100	1	
O=C(O)c1ccc(-n2cc(C(=O)NC3C4CC5CC(C4)CC3C5)cn2)cc1 (centres undefined)	0.107		6.6			
Cc1c(C(=O)NC2C3CC4CC(C3)CC2C4)cnn1-c1ccc(C(=O)O)cc1 (centres undefined)	0.127	8	< 3	> 100		
CCCSc1c(C(=O)NC2CCCCC2)cnn1[C@H]1CC[C@@H](C(=O)O)CC1		43	58	49	1.4	
CC(C)c1c(C(=O)NC2C3CC4CC(C3)CC2C4)cnn1-c1ccc(C(=O)O)cc1 (centres undefined)	0.036	2.2	< 2	53	1.2	
O=C(O)c1ccc(-n2ncc(C(=O)NC3C4CC5CC(C4)CC3C5)c2SC2CCCCC2)cc1 (centres undefined)	0.0013	3.6	9.4	82	3	
CCCSc1ncccc1C(=O)NC1CCCCC1					3.2	
CCCSc1c(C(=O)NC2CCCCC2)cnn1-c1cccc(C(=O)O)c1	0.02	17	17	> 100	0.7	
O=C(O)c1ccc(-n2ncc(C(=O)NC3C4CC5CC(C4)CC3C5)c2SC2CCCC2)cc1 (centres undefined)	0.0015	3.3	14	57	2.6	
CCCSc1nc(N2CCC[C@@H](CC(=O)O)C2)ccc1C(=O)NC1CCCCC1 [AZD-4017]						Drug metabolism [6]: 28%; Stability [7]: 4%; IC50 [8]: 29 nM; Stability [9]: 15%; IC50 [10]: 3.77 µM; Ratio [11]: 7.5; Ratio [12]: 2.4; Ratio [13]: 6; Ratio [14]: 4.1; Ratio [15]: 2.1; Drug metabolism [16]: 13%; Drug metabolism [17]: 10%
O=C(O)c1ccc(-n2ncc(C(=O)NC3C4CC5CC(C4)CC3C5)c2C2CCCC2)cc1 (centres undefined)	0.004			> 100	1.7	
O=C(O)c1ccc(-n2ncc(C(=O)NC3C4CC5CC(C4)CC3C5)c2C2CC2)cc1 (centres undefined)	0.045	14	15	51	0.9	
CCCSc1c(C(=O)NC2CCCCC2)cnn1C	0.132			0	3	
CC1(c2c(C(=O)NC3C4CC5CC(C4)CC3C5)cnn2-c2ccc(C(=O)O)cc2)CC1 (centres undefined)	0.033	19	11	> 100	1.1	

Further lines, with some results ahead:

fraction unbound [1]	clearance [2] [mL/min/kg]	hepatocyte CLint [3] [µL/min/1e6 cells]	bioavailability [4] [%]	logD [5]	SMILES	also measured
0.0131	3	6	65	1.5	CCSc1c(C(=O)NC2C3CC4CC(C3)CC2C4)cnn1-c1ccc(C(=O)O)cc1 (centres undefined)	
0.105	20	< 2	10	-0.4	CCCSc1c(C(=O)N[C@H]2C3CC4CC2C[C@](O)(C4)C3)cnn1-c1ccc(C(=O)O)cc1	
0.06			> 100	0.9	CCc1c(C(=O)NC2C3CC4CC(C3)CC2C4)cnn1-c1ccc(C(=O)O)cc1 (centres undefined)	
0.026	9.4	18	40	1.2	CCCSc1c(C(=O)N[C@H]2C3CC4CC2C[C@](OC(F)F)(C4)C3)cnn1-c1ccc(C(=O)O)cc1	
0.134			7	< 0.5	CCCSc1c(C(=O)N[C@H]2C3CC4CC2C[C@](S(C)(=O)=O)(C4)C3)cnn1-c1ccc(C(=O)O)cc1	
0.285	13	< 2	54	< 0.5	CCCSc1c(C(=O)N[C@H]2C3CC4CC2C[C@](OC)(C4)C3)cnn1-c1ccc(C(=O)O)cc1	
0.005			45	1.8	CCCSc1c(C(=O)NC2C3CC4CC(C3)CC2C4)cnn1-c1ccc(C(=O)O)cc1 (centres undefined)	
0.04	4.5	< 3	72	0.6	CCCSc1c(C(=O)NC2CCCCC2)cnn1-c1ccc(C(=O)O)cc1	
0.0336	11	< 2	64	1.2	CSc1c(C(=O)NC2C3CC4CC(C3)CC2C4)cnn1-c1ccc(C(=O)O)cc1 (centres undefined)	
